In the Kinase Knowledgebase extract (Sharma et al. 2016):
pIC50: −log10 of the molar value.

Biological target: MAPK14 (human) (UniProt Q16539)
Test: Inhibtion of MAPK14 Kinase Activity

Chain of MAPK14 (human) (Q16539 whole entry, looked up): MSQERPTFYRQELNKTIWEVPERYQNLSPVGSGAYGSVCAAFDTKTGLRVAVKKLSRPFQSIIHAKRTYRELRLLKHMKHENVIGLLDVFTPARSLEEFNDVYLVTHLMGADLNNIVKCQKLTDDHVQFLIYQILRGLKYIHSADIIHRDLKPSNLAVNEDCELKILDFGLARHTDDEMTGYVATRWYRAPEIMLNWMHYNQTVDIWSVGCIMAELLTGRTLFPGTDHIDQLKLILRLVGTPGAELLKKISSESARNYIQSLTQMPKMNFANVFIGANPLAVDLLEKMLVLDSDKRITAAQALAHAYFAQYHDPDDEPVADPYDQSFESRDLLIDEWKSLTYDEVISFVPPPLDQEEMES

Row | Compound | pIC50
1 | CC(C)C[C@H](NCCCOc1cc(F)c(-n2c(N)c(C(=O)c3ccc(F)cc3)ccc2=O)c(F)c1)C(=O)OC1CCCC1 | > 7.00
2 | Nc1c(C(=O)c2ccc(F)cc2F)ccc(=O)n1-c1c(F)cc(OCCCN[C@@H](C(=O)O)c2ccccc2)cc1F | > 7.00
3 | Cc1cc(C(=O)c2ccc(=O)n(-c3ccc(CN[C@@H](Cc4ccccc4)C(=O)O)cc3)c2N)ccc1F | > 7.00
4 | Nc1c(C(=O)c2ccc(F)cc2F)ccc(=O)n1-c1c(F)cc(OCCCN[C@H](C(=O)O)C2CCCCC2)cc1F | > 7.00
5 | Cc1cc(C(=O)c2ccc(=O)n(-c3ccc(OCCCN[C@H](C(=O)OC4CCCC4)c4ccccc4)cc3)c2N)ccc1F | > 7.00
6 | Nc1c(C(=O)c2ccc(F)cc2)ccc(=O)n1-c1c(F)cc(CN[C@@H](Cc2ccccc2)C(=O)O)cc1F | > 7.00
7 | Nc1c(C(=O)c2ccc(F)cc2)ccc(=O)n1-c1c(F)cc(OC2CCC(N[C@@H](Cc3ccccc3)C(=O)OC3CCCC3)CC2)cc1F (some centres undefined) | > 7.00
8 | CC(C)C[C@H](NCCCOc1ccc(-n2c(N)c(C(=O)c3ccc(F)cc3F)ccc2=O)cc1)C(=O)OC1CCCC1 | > 7.00
9 | CC(C)C[C@H](NCCCCCOc1cc(F)c(-n2c(N)c(C(=O)c3ccc(F)cc3F)ccc2=O)c(F)c1)C(=O)O | > 7.00
10 | CC(C)C[C@H](NCCCOc1cc(F)c(-n2c(N)c(C(=O)c3ccc(F)cc3)ccc2=O)c(F)c1)C(=O)O | > 7.00
11 | Nc1c(C(=O)c2ccc(F)cc2)ccc(=O)n1-c1ccc(OCCCN[C@@H](Cc2ccccc2)C(=O)O)cc1 | > 7.00
12 | CC(C)C[C@H](NCc1ccc(-n2c(N)c(C(=O)c3ccc(F)cc3F)ccc2=O)cc1)C(=O)OC1CCCC1 | > 7.00
13 | CC(C)(C)OC(=O)[C@@H](NCCCOc1cc(F)c(-n2c(N)c(C(=O)c3ccc(F)cc3F)ccc2=O)c(F)c1)c1ccccc1 | > 7.00
14 | Nc1c(C(=O)c2ccc(F)cc2)ccc(=O)n1-c1c(F)cc(OCCCN[C@H](C(=O)O)c2ccccc2)cc1F | > 7.00

Continued, values first:

Row | pIC50 | Compound
15 | > 7.00 | CC(C)C[C@H](NCCCOc1cc(F)c(-n2c(N)c(C(=O)c3ccc(F)cc3F)ccc2=O)c(F)c1)C(=O)OC1CCCC1
16 | > 7.00 | CC(C)C[C@@H](NCCCOc1cc(F)c(-n2c(N)c(C(=O)c3ccc(F)cc3F)ccc2=O)c(F)c1)C(=O)O
17 | > 7.00 | CC(C)C[C@H](NCCCOc1cc(F)c(-n2c(N)c(C(=O)c3ccc(F)cc3F)ccc2=O)c(F)c1)C(=O)OC(C)(C)C
18 | > 7.00 | Nc1c(C(=O)c2ccc(F)cc2F)ccc(=O)n1-c1ccc(OCCCN[C@H](C(=O)OC2CCCC2)c2ccccc2)cc1
19 | > 7.00 | CC(C)C[C@H](NCc1ccc(-n2c(N)c(C(=O)c3ccc(F)cc3F)ccc2=O)cc1)C(=O)O
20 | > 7.00 | Cc1cc(C(=O)c2ccc(=O)n(-c3c(F)cc(OCCCN[C@H](C(=O)OC4CCCC4)c4ccccc4)cc3F)c2N)ccc1F
21 | > 7.00 | Nc1c(C(=O)c2ccc(F)cc2)ccc(=O)n1-c1c(F)cc(OC2CCC(N[C@H](C(=O)OC3CCCC3)c3ccccc3)CC2)cc1F (some centres undefined)
22 | > 7.00 | Nc1c(C(=O)c2ccc(F)cc2)ccc(=O)n1-c1c(F)cc(OCCCN[C@H](C(=O)OC2CCCC2)c2ccccc2)cc1F
23 | > 7.00 | Cc1cc(C(=O)c2ccc(=O)n(-c3c(F)cc(OCCCN[C@@H](Cc4ccccc4)C(=O)O)cc3F)c2N)ccc1F
24 | > 7.00 | Nc1c(C(=O)c2ccc(F)cc2F)ccc(=O)n1-c1c(F)cc(OCCCN[C@@H](Cc2ccccc2)C(=O)O)cc1F
25 | > 7.00 | Nc1c(C(=O)c2ccc(F)cc2F)ccc(=O)n1-c1c(F)cc(OCCCN[C@H](C(=O)OC2CCCC2)C2CCCCC2)cc1F
26 | > 7.00 | Nc1c(C(=O)c2ccc(F)cc2F)ccc(=O)n1-c1c(F)cc(OCCCN[C@H](C(=O)OC2CC3CCC2C3)c2ccccc2)cc1F (some centres undefined)
27 | > 7.00 | Nc1c(C(=O)c2ccc(F)cc2F)ccc(=O)n1-c1ccc(CN[C@H](C(=O)O)c2ccccc2)cc1
28 | > 7.00 | Nc1c(C(=O)c2ccc(F)cc2F)ccc(=O)n1-c1ccc(CN[C@@H](Cc2ccccc2)C(=O)O)cc1
29 | > 7.00 | Nc1c(C(=O)c2ccc(F)cc2)ccc(=O)n1-c1ccc(OCCCN[C@H](C(=O)OC2CCCC2)c2ccccc2)cc1
